The data set concerns Liver Response-Associated Features (LRFs) in liver tissue. In words: Proteome analysis (2D electrophoresis, Reference Protocol) of liver tissue of drug-treated vs control animals: relative abundance of LRFs. The source says:
Samples from animals treated with various drugs at various timepoints and various dose levels can be collected, prepared, and analysed as described herein. […] Using the following procedure, proteins in liver tissue and serum/plasma from 5 control animals and 5 animals having liver response induced through drug treatment were separated by isoelectric focusing followed by SDS-PAGE and analyzed. Samples were taken and analyzed at three different time points designated “early”, “full manifestation” and “late”. Parts 6.1.1 to 6.1.9 (inclusive) of the procedure set forth below are hereby designated as the “Reference Protocol”.
At the time of necropsy, approximately 2 g section of the liver's median lobe was removed to a conical tube and quick-frozen in liquid nitrogen. The frozen liver section was then pulverized for 1 minute using a freezer mill as follows:
Approximately 10-20 mg pulverized liver was solubilized with 10 ul protease inhibitor and 1.5 ml lysis solution and vortexed well. The sample was allowed to remain at room temperature for 10 minutes, was vortexed again, and then pelleted using an Eppendorf 5417R Centrifuge for 10 minutes at 13000g at 15 EC. The resulting supernatant was frozen at −80° C.
The sample was heated at 95° C. for 5 mins, and then allowed to cool to 20° C. 125 μl of the following buffer was then added to the sample:
This mixture was vortexed, and centrifuged at 13000 rpm for 5 mins at 15° C., and the supernatant was analysed by isoelectric focusing. An assay for protein content was carried out on the final sample (Pierce BCA Cat #23225).
Isoelectric focusing (IEF), was performed using the Immobiline® DryStrip Kit (Pharmacia BioTech), following the procedure described in the manufacturer's instructions, see Instructions for Immobilineg DryStrip Kit, Pharmacia, #18-1038-63, Edition AB (incorporated herein by reference in its entirety). Immobilized pH Gradient (IPG) strips (18 cm, pH 3-10 non-linear strips; Pharmacia Cat. #17-1235-01) were rehydrated overnight at 20° C. in a solution of 8M urea, 2% (w/v) CHAPS, 10 mM DTT, 2% (v/v) Resolytes 3.5-10, as described in the Immobiline DryStrip Users Manual. For IEF, 50 μl of supernatant (prepared as above) was loaded onto a strip, with the cup-loading units being placed at the basic end of the strip. The loaded gels were then covered with mineral oil (Pharmacia 17-3335-01) and a voltage was immediately applied to the strips according to the following profile, using a Pharmacia EPS3500XL power supply (Cat 19-3500-01):
After the final 19 hr step, the strips were immediately removed and immersed for 10 mins at 20° C. in a first solution of the following composition: 6M urea; 2% (w/v) DTT; 2% (w/v) SDS; 30% (v/v) glycerol (Fluka 49767); 0.05M Tris/HCl, pH 6.8 (Sigma Cat T-1503). The strips were removed from the first solution and immersed for 10 mins at 20° C. in a second solution of the following composition: 6M urea; 2% (w/v) iodoacetamide (Sigma 1-6125); 2% (w/v) SDS; 30% (v/v) glycerol; 0.05M Tris/HCl, pH 6.8.
A 9-16% linear polyacrylamide gradient was cast, extending up to a point 2 cm below the level of the notch in the front plate, using the Angelique gradient casting system (Large Scale Biology). Stock solutions were as follows. Acrylamide (40% in water) was from Serva (Cat. #10677). […] The gel buffer was 0.375M Tris/HCl, pH 8.8. The polymerization catalyst was 0.05% (v/v) TEMED (BioRad 161-0801), and the initiator was 0.1% (w/v) APS (BioRad 161-0700). No SDS was included in the gel and no stacking gel was used. The cast gels were allowed to polymerize at 20° C. overnight, and then stored at 4° C. in sealed polyethylene bags with 6 ml of gel buffer, and were used within 4 weeks.
A solution of 0.5% (w/v) agarose (Fluka Cat 05075) was prepared in running buffer (0.025 M Tris, 0.198 M glycine (Fluka 50050), 1% (w/v) SDS, supplemented by a trace of bromophenol blue). The agarose suspension was heated to 70° C. with stirring, until the agarose had dissolved.

With `CCC1(c2ccccc2)C(=O)NC(=O)NC1=O` [phenobarbital], the “Fold Change LRF-24” value (Early, P 0.0075) stood at 3.34 fold. In addition, the “Fold Change LRF-17” value (Early, P 0.0212) was determined as 1.61 fold. For the same compound, the “Fold Change LRF-26” value (Early, P 0.0216) came to 1.33 fold. For the same compound, under “Early, P 0.0254”, the “Fold Change LRF-37” value is 3.98 fold. Where the note is “Late, P 0.0075”, the “Fold Change LRF-112” value was found to be 5.38 fold and the “Fold Change LRF-115” value amounted to 3.16 fold. For the same compound, the “Fold Change LRF-85” value (Middle, P 0.0122) came out at 1.72 fold. Besides, for the setting “Middle, P 0.0216”, the “Fold Change LRF-60” value was 1.67 fold, the “Fold Change LRF-80” value was found to be 1.40 fold and the “Fold Change LRF-90” value turned out to be 1.47 fold. Moreover, for the setting “Middle, P 0.0345”, the “Fold Change LRF-66” value is 1.93 fold. Moreover, the “Fold Change LRF-74” value (Middle, P 0.0361) was 1.42 fold. The “Fold Change LRF-83” value (Middle, P 0.0367) turned out to be 1.40 fold.

Source of the values: patent US20030228583A1, “Biomarkers of liver response” (priority 2001, published 2003).
